PMC12472322, “Structure–Activity Relationship Study of 3-Alkynyl-6-aryl-isothiazolo[4,3-b]pyridines as Dual Inhibitors of the Lipid Kinases PIKfyve and PIP4K2C” (Pharmaceuticals, 2025)

Columns and labels:
PIKfyve = biological target: T1, PIKfyve (Homo sapiens, UniProt Q9Y2I7); assay: biochemical PIKfyve mobility shift assay (Nanosyn)
T1 construct: purchased Nanosyn, Santa Clara, CA, USA (contract assay service)

VEEV (TC-83) = assay: microbe, parasite or virus in culture; format: cell-based; settings: Venezuelan equine encephalitis virus, U-87 MG, 18 h, read-out: VEEV (TC-83) EC50
SARS-CoV-2 = assay: microbe, parasite or virus in culture; format: cell-based, severe acute respiratory syndrome coronavirus 2; settings: for EC50: Severe acute respiratory syndrome coronavirus 2, VeroE6/TMPRSS2, 24 h, read-out: SARS-CoV2 EC50
[1] = cell viability (AlamarBlue) in SARS-CoV-2-infected Vero E6/TMPRSS2 cells; format: cell-based; settings: African green monkey, Vero E6/TMPRSS2 cells infected with SARS-CoV-2, half-maximal cytotoxic concentration, read-out: SARS-CoV2 CC50
U-87 MG cells = settings: half-maximal cytotoxic concentration
PIP4K2C = biological target: T2, PIP4K2C (Homo sapiens, UniProt Q8TBX8); assay: PIP4K2C binding assay (DiscoverX/Kinome platform)
T2 sequence (Q8TBX8 1-421): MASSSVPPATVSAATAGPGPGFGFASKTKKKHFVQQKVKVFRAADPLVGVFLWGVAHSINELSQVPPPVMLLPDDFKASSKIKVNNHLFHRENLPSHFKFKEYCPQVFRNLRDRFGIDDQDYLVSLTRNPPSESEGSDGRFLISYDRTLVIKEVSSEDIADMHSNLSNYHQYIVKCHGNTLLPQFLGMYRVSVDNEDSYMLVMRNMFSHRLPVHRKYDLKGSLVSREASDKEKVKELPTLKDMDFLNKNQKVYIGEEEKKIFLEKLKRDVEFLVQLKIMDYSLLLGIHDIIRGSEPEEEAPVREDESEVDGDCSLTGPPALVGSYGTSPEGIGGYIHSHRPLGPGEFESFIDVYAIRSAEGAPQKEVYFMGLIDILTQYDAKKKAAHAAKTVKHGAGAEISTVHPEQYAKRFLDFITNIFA

Capan-1 = assay: cell proliferation assay (MTS, 72 h); settings: Homo sapiens, CAPAN-1, 72 h, read-out: CC50 Capan-1
HCT-116 = assay: cell proliferation assay (MTS, 72 h); settings: Homo sapiens, HCT-116, 72 h, read-out: CC50 HCT-116
LN-229 = assay: cell proliferation assay (MTS, 72 h); settings: Homo sapiens, LN-229, 72 h, read-out: CC50 LN-229
NCI-H460 = assay: cell proliferation assay (MTS, 72 h); settings: Homo sapiens, NCI-H460, 72 h, read-out: CC50 NCI-H460
DND-41 = assay: cell proliferation assay (MTS, 72 h); settings: DND41, 72 h, read-out: CC50 DND-41
HL-60 = assay: cell proliferation assay (MTS, 72 h); settings: Homo sapiens, HL-60, 72 h, read-out: CC50 HL-60
K-562 = assay: cell proliferation assay (MTS, 72 h); settings: Homo sapiens, K562, 72 h, read-out: CC50 K-562
Z-138 = assay: cell proliferation assay (MTS, 72 h); settings: Homo sapiens, Z-138, 72 h, read-out: CC50 Z-138

T1 sequence (Q9Y2I7 whole entry): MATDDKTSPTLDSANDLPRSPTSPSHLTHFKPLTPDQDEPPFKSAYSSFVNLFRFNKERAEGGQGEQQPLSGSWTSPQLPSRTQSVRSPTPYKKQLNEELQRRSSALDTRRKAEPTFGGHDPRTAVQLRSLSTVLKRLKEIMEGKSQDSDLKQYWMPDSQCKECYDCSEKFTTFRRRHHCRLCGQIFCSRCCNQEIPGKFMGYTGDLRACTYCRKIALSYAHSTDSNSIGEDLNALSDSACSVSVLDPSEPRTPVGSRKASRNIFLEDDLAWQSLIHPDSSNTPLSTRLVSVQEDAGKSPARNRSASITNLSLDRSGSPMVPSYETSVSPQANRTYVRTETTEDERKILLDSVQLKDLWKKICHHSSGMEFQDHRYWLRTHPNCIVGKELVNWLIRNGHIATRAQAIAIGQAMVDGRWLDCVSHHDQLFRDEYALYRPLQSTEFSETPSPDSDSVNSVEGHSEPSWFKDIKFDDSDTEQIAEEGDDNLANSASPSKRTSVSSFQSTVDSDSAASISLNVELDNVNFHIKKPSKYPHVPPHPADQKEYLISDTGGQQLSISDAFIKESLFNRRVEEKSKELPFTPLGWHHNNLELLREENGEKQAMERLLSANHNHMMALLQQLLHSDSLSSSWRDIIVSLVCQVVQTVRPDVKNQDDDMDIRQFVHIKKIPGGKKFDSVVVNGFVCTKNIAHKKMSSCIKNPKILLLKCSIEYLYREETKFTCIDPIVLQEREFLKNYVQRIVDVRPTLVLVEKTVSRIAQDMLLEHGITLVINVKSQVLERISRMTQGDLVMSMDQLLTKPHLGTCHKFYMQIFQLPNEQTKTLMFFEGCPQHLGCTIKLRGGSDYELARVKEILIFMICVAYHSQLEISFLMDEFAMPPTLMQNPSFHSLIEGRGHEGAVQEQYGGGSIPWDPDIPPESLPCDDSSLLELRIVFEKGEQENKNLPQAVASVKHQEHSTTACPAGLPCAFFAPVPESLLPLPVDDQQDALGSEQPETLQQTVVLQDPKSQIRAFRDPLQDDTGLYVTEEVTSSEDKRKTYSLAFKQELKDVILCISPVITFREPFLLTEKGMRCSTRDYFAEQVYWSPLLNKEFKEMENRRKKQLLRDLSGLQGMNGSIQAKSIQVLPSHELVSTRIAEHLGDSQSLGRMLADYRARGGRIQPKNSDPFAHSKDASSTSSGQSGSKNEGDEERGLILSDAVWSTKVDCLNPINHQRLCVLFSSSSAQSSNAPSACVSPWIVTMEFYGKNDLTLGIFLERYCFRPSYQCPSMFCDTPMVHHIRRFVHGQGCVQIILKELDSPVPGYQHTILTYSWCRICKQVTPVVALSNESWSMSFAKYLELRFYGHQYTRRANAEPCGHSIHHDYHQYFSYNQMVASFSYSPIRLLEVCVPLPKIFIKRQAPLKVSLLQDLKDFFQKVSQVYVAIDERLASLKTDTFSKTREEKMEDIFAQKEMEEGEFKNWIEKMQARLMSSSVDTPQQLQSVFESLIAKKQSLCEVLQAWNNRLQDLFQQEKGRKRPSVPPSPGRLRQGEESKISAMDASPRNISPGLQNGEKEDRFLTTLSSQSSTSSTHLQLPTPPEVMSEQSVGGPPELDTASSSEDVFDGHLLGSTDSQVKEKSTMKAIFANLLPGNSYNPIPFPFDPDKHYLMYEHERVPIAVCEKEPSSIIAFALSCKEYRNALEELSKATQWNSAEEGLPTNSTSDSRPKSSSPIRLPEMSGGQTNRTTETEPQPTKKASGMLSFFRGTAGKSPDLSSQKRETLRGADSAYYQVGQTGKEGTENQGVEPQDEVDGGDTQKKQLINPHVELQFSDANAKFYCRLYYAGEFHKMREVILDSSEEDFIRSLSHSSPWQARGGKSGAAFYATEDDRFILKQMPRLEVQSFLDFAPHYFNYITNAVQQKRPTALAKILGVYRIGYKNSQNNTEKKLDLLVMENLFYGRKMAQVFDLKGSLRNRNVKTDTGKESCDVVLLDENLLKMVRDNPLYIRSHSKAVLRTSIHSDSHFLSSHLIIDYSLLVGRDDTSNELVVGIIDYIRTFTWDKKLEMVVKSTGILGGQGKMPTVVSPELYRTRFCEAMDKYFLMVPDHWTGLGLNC

Compound	IC50 (PIKfyve; Tables 1-4 and text)	EC50 (VEEV (TC-83))	EC50 (SARS-CoV-2)	CC50 [1]	VEEV (TC-83) CC50 (U-87 MG cells)	IC50 (PIKfyve; Table 5 column)	Kd (PIP4K2C)	also measured
C(#Cc1snc2cc(-c3ccc(OCCN4CCCC4)cc3)cnc12)c1cccnc1 [Compound 5b, 3-(Pyridin-3-ylethynyl)-6-(4-(2-(pyrrolidin-1-yl)ethoxy)phenyl)isothiazolo[4,3-b]pyridine]	5.5 nM	710 ± 90 nM	1420 ± 140 nM	> 20 µM	>10 µM	–	–	–
COc1ccc(-c2cnc3c(C#Cc4cnc5ccccc5c4)snc3c2)cc1OC [Compound 7w, 6-(3,4-Dimethoxyphenyl)-3-(quinolin-3-ylethynyl)isothiazolo[4,3-b]pyridine]	5690 nM	2080 ± 100 nM	–	< 10 µM	>10 µM	5690 nM	2000 nM	fold less potent on PIKfyve relative to RMC-113 (PIKfyve; ratio of IC50 values): 700 fold; SARS-CoV-2 screening, result in words (SARS-CoV-2; Vero E6/TMPRSS2 cells): only cytotoxicity was observed
COc1ccc(-c2cnc3c(C#Cc4cncc(F)c4)snc3c2)cc1OC [Compound 7r, 6-(3,4-Dimethoxyphenyl)-3-((5-fluoropyridin-3-yl)ethynyl)isothiazolo[4,3-b]pyridine]	98 nM	1850 ± 120 nM	1920 ± 520 nM	> 20 µM	>10 µM	98 nM	110 nM	–
COCCNC(=O)c1cccc(-c2cnc3c(C#Cc4cccnc4)snc3c2)c1 [Compound 3s, N-(2-Methoxyethyl)-3-(3-(pyridin-3-ylethynyl)isothiazolo[4,3-b]pyridin-6-yl)benzamide]	1.9 nM	400 ± 80 nM	5650 ± 1490 nM	> 20 µM	>10 µM	1.9 nM	30 nM	–
COc1ccccc1-c1cnc2c(C#Cc3cccnc3)snc2c1 [Compound 3b, 6-(2-Methoxyphenyl)-3-(pyridin-3-ylethynyl)isothiazolo[4,3-b]pyridine]	6.8 nM	–	–	–	–	–	–	CC50 (Capan-1): 1020 ± 90 nM; CC50 (HCT-116): 1020 ± 1240 nM; CC50 (LN-229): 3.28 ± 1.24 µM; CC50 (NCI-H460): 2970 ± 750 nM; CC50 (DND-41): 3.92 ± 0.72 µM; CC50 (HL-60): 1.48 ± 1.13 µM; CC50 (K-562): 5.27 ± 0.59 µM; CC50 (Z-138): 1.81 ± 0.69 µM
C(#Cc1snc2cc(-c3ccc(OCCN4CCOCC4)cc3)cnc12)c1cccnc1 [Compound 5a, 4-(2-(4-(3-(Pyridin-3-ylethynyl)isothiazolo[4,3-b]pyridin-6-yl)phenoxy)ethyl)morpholine]	7.1 nM	310 ± 10 nM	5630 ± 970 nM	> 20 µM	>10 µM	–	–	–
COC(=O)c1cncc(C#Cc2snc3cc(-c4ccc(OC)c(OC)c4)cnc23)c1 [Compound 7m, Methyl 5-((6-(3,4-dimethoxyphenyl)isothiazolo[4,3-b]pyridin-3-yl)ethynyl)nicotinate]	120 nM	1160 ± 1 nM	2560 ± 860 nM	> 20 µM	>10 µM	–	–	–
Fc1ccccc1-c1cnc2c(C#Cc3cccnc3)snc2c1 [Compound 3h, 6-(2-Fluorophenyl)-3-(pyridin-3-ylethynyl)isothiazolo[4,3-b]pyridine]	8.8 nM	6930 ± 130 nM	1340 ± 500 nM	> 20 µM	>20 µM	–	–	–
Clc1cccc(-c2cnc3c(C#Cc4cccnc4)snc3c2)c1 [Compound 3i, 6-(3-Chlorophenyl)-3-(pyridin-3-ylethynyl)isothiazolo[4,3-b]pyridine]	21 nM	–	–	–	–	21 nM	180 nM	–
COc1cccc(C#Cc2snc3cc(-c4ccc(OC)c(OC)c4)cnc23)c1 [Compound 7f, 6-(3,4-Dimethoxyphenyl)-3-((3-methoxyphenyl)ethynyl)isothiazolo[4,3-b]pyridine]	21 nM	4790 ± 240 nM	–	< 10 µM	>10 µM	–	–	–
COc1cccc(-c2cnc3c(C#Cc4cccnc4)snc3c2)c1 [Compound 3a, 6-(3-Methoxyphenyl)-3-(pyridin-3-ylethynyl)isothiazolo[4,3-b]pyridine]	6.8 nM	6880 ± 330 nM	–	< 10 µM	>10 µM	6.8 nM	190 nM	–
COc1ccncc1C#Cc1snc2cc(-c3ccc(OC)c(OC)c3)cnc12 [Compound 7o, 6-(3,4-Dimethoxyphenyl)-3-((4-methoxypyridin-3-yl)ethynyl)isothiazolo[4,3-b]pyridine]	19 nM	920 ± 80 nM	–	< 10 µM	7.69 ± 0.001 µM	19 nM	230 nM	–
COc1ccc(-c2cnc3c(C#Cc4cncc(C)c4)snc3c2)cc1OC [Compound 7i, 6-(3,4-Dimethoxyphenyl)-3-((5-methylpyridin-3-yl)ethynyl)isothiazolo[4,3-b]pyridine]	2 nM	–	–	–	–	–	–	IC50 (PIKfyve; values given in text in nM): 2 nM; CC50 (Capan-1): 14600 ± 2970 nM; CC50 (HCT-116): ≥ 74000 nM; CC50 (LN-229): > 100 µM; CC50 (NCI-H460): > 100000 nM; CC50 (DND-41): > 100 µM; CC50 (HL-60): > 100 µM; CC50 (K-562): > 100 µM; CC50 (Z-138): 70.2 ± 2.55 µM
COc1cc(-c2cnc3c(C#Cc4cccnc4)snc3c2)ccc1N [Compound 3f, 2-Methoxy-4-(3-(pyridin-3-ylethynyl)isothiazolo[4,3-b]pyridin-6-yl)aniline]	2.8 nM	260 ± 80 nM	2740 ± 40 nM	> 20 µM	>20 µM	2.8 nM	44 nM	–
COc1cc(-c2cnc3c(C#Cc4cccnc4)snc3c2)ccc1C(=O)O [Compound 4, 2-Methoxy-4-(3-(pyridin-3-ylethynyl)isothiazolo[4,3-b]pyridin-6-yl)benzoic acid]	49 nM	8700 ± 1700 nM	360 ± 190 nM	> 20 µM	>10 µM	49 nM	68 nM	–
COc1ccc(-c2cnc3c(C#Cc4ccccc4F)snc3c2)cc1OC [Compound 7e, 6-(3,4-Dimethoxyphenyl)-3-((2-fluorophenyl)ethynyl)isothiazolo[4,3-b]pyridine]	62 nM	16800 ± 1250 nM	550 ± 150 nM	15.7 ± 1.34 µM	>20 µM	62 nM	280 nM	–
COc1ccc(-c2cnc3c(C#Cc4ccc(C#N)nc4)snc3c2)cc1OC [Compound 7q, 5-((6-(3,4-Dimethoxyphenyl)isothiazolo[4,3-b]pyridin-3-yl)ethynyl)picolinonitrile]	> 10000 nM	–	–	–	–	–	> 30000 nM	–
Ic1cccc(/C=N/Nc2nc(N3CCOCC3)nc(N(c3ccccc3)c3ccccc3)n2)c1 [Vacuolin-1, reference compound]	–	–	–	–	–	–	–	CC50 (Capan-1): 900 ± 130 nM; CC50 (HCT-116): 1870 ± 750 nM; CC50 (LN-229): 6.35 ± 1.8 µM; CC50 (NCI-H460): 1460 ± 160 nM; CC50 (DND-41): 24.1 ± 1.21 µM; CC50 (HL-60): 26.4 ± 1.48 µM; CC50 (K-562): 17.2 ± 3.08 µM; CC50 (Z-138): 16.6 ± 1.31 µM
CC(C)Oc1ccc(-c2cnc3c(C#Cc4cccnc4)snc3c2)cc1 [Compound 3e, 6-(4-Isopropoxyphenyl)-3-(pyridin-3-ylethynyl)isothiazolo[4,3-b]pyridine]	20 nM	–	–	–	–	–	–	–
COc1ccc(C#Cc2snc3cc(-c4ccc(OC)c(OC)c4)cnc23)cn1 [Compound 7h, 6-(3,4-Dimethoxyphenyl)-3-((6-methoxypyridin-3-yl)ethynyl)isothiazolo[4,3-b]pyridine]	590 nM	–	–	–	–	–	–	–
CCNC(=O)c1ccc(-c2cnc3c(C#Cc4cccnc4)snc3c2)cc1 [Compound 3n, N-Ethyl-4-(3-(pyridin-3-ylethynyl)isothiazolo[4,3-b]pyridin-6-yl)benzamide]	3.5 nM	–	–	–	–	–	–	–
COc1ccc(-c2cnc3c(C#Cc4ccc(C(F)(F)F)nc4)snc3c2)cc1OC [Compound 7n, 6-(3,4-Dimethoxyphenyl)-3-((6-(trifluoromethyl)pyridin-3-yl)ethynyl)isothiazolo[4,3-b]pyridine]	680 nM	–	–	–	–	–	–	–
COc1ccc(-c2cnc3c(C#Cc4cc(F)cnc4OC)snc3c2)cc1OC [Compound 7t, 6-(3,4-Dimethoxyphenyl)-3-((5-fluoro-2-methoxypyridin-3-yl)ethynyl)isothiazolo[4,3-b]pyridine]	> 10000 nM	–	–	–	–	–	–	–
